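Method: 48-hour compound exposure of cells in 96-well plates, five concentrations, linear interpolation of endpoints. GI50 = concentration required for 50% inhibition of growth. TGI denotes the concentration required for complete inhibition of growth.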
What was measured:
Test in all cases: NCI anticancer screen, dose series, 48 h
[1] = system: HL-60(TB) leukemia
[2] = system: UACC-62 melanoma
[3] = system: DU-145 prostate
[4] = system: PC-3 prostate
[5] = system: SW-620 colon
[6] = system: K-562 leukemia
[7] = system: NCI-H522 lung
[8] = system: HT29 colon
[9] = system: RXF 393 renal
[10] = system: HCT-15 colon
[11] = system: MCF7 breast
[12] = system: A549 NSCLC
[13] = system: T-47D breast
[14] = system: HOP-62 NSCLC
[15] = system: SK-MEL-2 melanoma
[16] = system: ACHN renal
[17] = system: U251 CNS
[18] = system: OVCAR-8 ovarian
[19] = system: UO-31 renal
[20] = system: SNB-75 CNS
[21] = system: HCC-2998 colon
[22] = system: A498 renal
[23] = system: SF-539 CNS
[24] = system: EKVX NSCLC
[25] = system: OVCAR-5 ovarian
[26] = system: OVCAR-3 ovarian

## O=c1oc2ccc(-c3ccc(F)cc3F)cc2c(=O)n1-c1ccc(Cl)c(C(F)(F)F)c1
[1]
  GI50: 4.66 µM
  TGI: 47.2 µM
[2]
  GI50: 2.89 µM
  TGI: 10.4 µM
[3]
  GI50: 4.03 µM
  TGI: 14.3 µM
[4]
  GI50: 2.04 µM
  TGI: 10.9 µM
[5]
  GI50: 3.93 µM
  TGI: 14.9 µM
[6]
  GI50: 3.18 µM
  TGI: > 100 µM
[7]
  GI50: 2.52 µM
  TGI: 7.84 µM
[8]
  GI50: 16.7 µM
  TGI: 31.4 µM
[9]
  GI50: 2.21 µM
  TGI: 6.51 µM
[10]
  GI50: 3.19 µM
  TGI: 12.4 µM
[11]
  GI50: 2.7 µM
  TGI: 10.4 µM
[12]
  GI50: 3.53 µM
  TGI: 13.1 µM
[13]
  GI50: 2.42 µM
  TGI: 6.76 µM
[14]
  GI50: 4.18 µM
  TGI: 14.6 µM
[15]
  GI50: 2 µM
  TGI: 5.02 µM
[16]
  GI50: 3.24 µM
  TGI: 12.3 µM
[17]
  GI50: 3.23 µM
  TGI: 11.1 µM
[18]
  GI50: 4.38 µM
  TGI: 17.9 µM
[19]
  GI50: 3.45 µM
  TGI: 14 µM
[20]
  GI50: 2.23 µM
  TGI: 13.4 µM
[21]
  GI50: 3.58 µM
  TGI: 12.8 µM
[22]
  GI50: 2.95 µM
  TGI: 8.94 µM
[23]
  GI50: 3.9 µM
  TGI: 14.7 µM
[24]
  GI50: 2.85 µM
  TGI: 12.2 µM
[25]
  GI50: 5.98 µM
  TGI: 21.4 µM
[26]
  GI50: 3.22 µM
  TGI: 11 µM
